Reference: patent US11142515B2, “Pyrazolyl-ureas as kinase inhibitors” (RESPIVERT LIMITED, priority 2014, dated 2021)

Legend:
p38MAPKγ (MAPK12) = target: T1, p38MAPKγ (MAPK12) (Homo sapiens, UniProt P53778); assay: p38 MAPKγ enzyme inhibition (Z-LYTE FRET); format: biochemical; details: Table 2A; read-out: IC50 Values for Enzyme Inhibition p38 MAPKγ
T1 construct: purchased Life Technologies
T1 sequence (P53778 1-367): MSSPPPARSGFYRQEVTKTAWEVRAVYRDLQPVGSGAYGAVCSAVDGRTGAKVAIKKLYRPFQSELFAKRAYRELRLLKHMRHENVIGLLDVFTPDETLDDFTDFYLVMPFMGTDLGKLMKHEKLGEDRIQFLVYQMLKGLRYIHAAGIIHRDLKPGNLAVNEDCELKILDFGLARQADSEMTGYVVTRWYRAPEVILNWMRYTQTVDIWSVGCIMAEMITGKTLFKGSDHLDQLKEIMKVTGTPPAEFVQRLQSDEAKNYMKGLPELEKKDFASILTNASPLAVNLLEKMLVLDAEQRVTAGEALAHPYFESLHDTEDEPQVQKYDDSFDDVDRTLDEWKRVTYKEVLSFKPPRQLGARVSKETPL
Procedure, shortened: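 Enzyme (added at 800 ng/mL) was preincubated 2 h at RT with compound (solutions of 40 to 0.0012 μg/mL), then FRET peptide (8 μM) and ATP (400 μM), both as added, were reacted 1 h at RT. Protease development followed for 1 h; phosphorylation was read as the coumarin/fluorescein emission ratio.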

GSK 3α enzyme isoform = target: T2, GSK 3α enzyme isoform (Homo sapiens, UniProt P49840); assay: GSK 3α enzyme inhibition (Z-LYTE FRET); format: biochemical; details: for IC50: Table 2A, read-out: IC50 Values for Enzyme Inhibition GSK3α
T2 construct: purchased Life Technologies
T2 sequence (P49840 whole entry, canonical isoform): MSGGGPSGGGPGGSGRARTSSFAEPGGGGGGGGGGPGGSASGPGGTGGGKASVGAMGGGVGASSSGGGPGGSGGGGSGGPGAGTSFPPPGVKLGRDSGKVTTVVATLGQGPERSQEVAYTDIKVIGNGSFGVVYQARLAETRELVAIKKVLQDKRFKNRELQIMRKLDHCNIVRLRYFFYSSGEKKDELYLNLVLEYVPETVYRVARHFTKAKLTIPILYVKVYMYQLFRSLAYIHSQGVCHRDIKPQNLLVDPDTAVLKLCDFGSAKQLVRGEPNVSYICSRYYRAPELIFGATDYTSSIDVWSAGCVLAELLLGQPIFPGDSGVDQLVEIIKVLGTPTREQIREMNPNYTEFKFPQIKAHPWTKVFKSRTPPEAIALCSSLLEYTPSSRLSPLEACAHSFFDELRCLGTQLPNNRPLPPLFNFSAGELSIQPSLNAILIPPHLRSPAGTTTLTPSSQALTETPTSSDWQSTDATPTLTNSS
Procedure, shortened: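 Z-LYTE FRET kinase assay: GSK3α protein (500 ng/mL stock) preincubated with compound (0.0012–40 μg/mL stocks) for 2 h at RT. FRET peptide (8 μM stock) and ATP (40 μM stock) added for 1 h at RT, then protease development for 1 h. Phosphorylation taken from the coumarin/fluorescein emission ratio.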

[1] = system: IL-8 release in d-U937 cells; assay: LPS-induced IL-8 release in d-U937 cells; format: cell-based; details: Homo sapiens, dU937, LPS 0.1 μg/mL 4 h
Procedure, shortened: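 Sandwich ELISA of supernatants measured TNFα and IL-8 after 4 h LPS challenge (0.1 μg/mL, E. coli O111:B4). Before the challenge, PMA-differentiated U937 macrophage-like cells received compound for 2 h. REC50 derived from concentration-response curves, with inhibition relative to vehicle control.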

d-U937 cells = assay: Cell viability: MTT assay in differentiated U937 cells; format: cell-based, human; details: 10 μg/mL
Procedure, shortened: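 Viability loss, calculated against 0.5% DMSO vehicle (gains reported negative), was measured by MTT reduction (1 h) and A550 after DMSO solubilisation. Compound exposure of d-U937 cells was 10 μg/mL final, for 24 h in 10% FCS or 4 h in 5% FCS RPMI1640.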

CXCL1 (KC) in BALF = assay: Cigarette smoke model: CXCL1 (KC) in BALF; format: in vivo, A/J mice; details: mice; for CXCL1 in BALF / CXCL1 in BALF, % inhibition: tobacco smoke
Experimental: A/J mice (males, 5 weeks old) were exposed to cigarette smoke (4% cigarette smoke, diluted with air) for 30 min/day for 11 days using a Tobacco Smoke Inhalation Experiment System for small animals (Model SIS-CS; Sibata Scientific Technology, Tokyo, Japan). Test substances were administered intra-nasally (35 μL of solution in 10% DMSO/PBS) once daily for 3 days after the final cigarette smoke exposure. At 12 h after the last […], each of the animals was anesthetized, the trachea cannulated and bronchoalveolar lavage fluid (BALF) was collected. The numbers of alveolar macrophages and neutrophils were determined by FACS analysis (EPICS® ALTRA II, Beckman Coulter, Inc., Fullerton, Calif., USA) using anti-mouse MOMA2 antibody (macrophage) or anti-mouse 7/4 antibody (neutrophil). BALF was centrifuged and the supernatant was collected. The level of keratinocyte chemoattractant (KC; CXCL1) in BALF was quantitated using a Quantikine® mouse KC ELISA kit (R&D systems, Inc., Minneapolis, Minn., USA).

| IC50 (p38MAPKγ (MAPK12)) [nM] | IC50 (GSK 3α enzyme isoform) [nM] | IC50 [1] [nM] | Structure (SMILES) | inhibitory activity against GSK3a (in words) (GSK 3α enzyme isoform) | MTT Assay Cell viability at time point indicated in d-U937 Cells, 4 h (d-U937 cells) | MTT Assay Cell viability at time point indicated in d-U937 Cells, 24 h (d-U937 cells) | CXCL1 in BALF (CXCL1 (KC) in BALF; 0.07 μg/mouse) [pg/mL] | CXCL1 in BALF, % inhibition (CXCL1 (KC) in BALF; 0.07 μg/mouse) [%] | CXCL1 in BALF (CXCL1 (KC) in BALF; 0.7 μg/mouse) [pg/mL] | CXCL1 in BALF, % inhibition (CXCL1 (KC) in BALF; 0.7 μg/mouse) [%] | CXCL1 in BALF (CXCL1 (KC) in BALF; 7 μg/mouse) [pg/mL] | CXCL1 in BALF, % inhibition (CXCL1 (KC) in BALF; 7 μg/mouse) [%] | tobacco smoke induced CXCL1 (KC) production in BALF (in words) (CXCL1 (KC) in BALF) |
| --- | --- | --- | --- | --- | --- | --- | --- | --- | --- | --- | --- | --- | --- |
| 67 | > 16700 | 13 | Cc1ccc(-n2nc(C(C)(C)C)cc2NC(=O)Nc2ccc(OCc3ccnc(Nc4cnccn4)c3)c3ccccc23)cc1 [Example 1, 1-(3-(tert-Butyl)-1-(p-tolyl)-1H-pyrazol-5-yl)-3-(4-((2-(pyrazin-2-ylamino)pyridin-4-yl)methoxy)naphthalen-1-yl)urea] | very much weaker than the Reference Compound | − (−ve and +ve indicate the value is below and above, respectively, the no significant effect threshold defined as 30% inhibition at 10 μg/mL at the time point indicated) | − (−ve and +ve indicate the value is below and above, respectively, the no significant effect threshold defined as 30% inhibition at 10 μg/mL at the time point indicated) | 14.47 | 14.6 | 12.49 | 34.9 | 9.03 | 70.3 | inhibited |
| 16 | 2770 | 2.4 | Cc1ccc(-n2nc(C(C)(C)C)cc2NC(=O)Nc2ccc(OCc3ccnc(Nc4cnc(CN)cn4)c3)c3ccccc23)cc1 [Example 5, 1-(4-((2-((5-(Aminomethyl)pyrazin-2-yl)amino)pyridin-4-yl)methoxy)naphthalen-1-yl)-3-(3-(tert-butyl)-1-(p-tolyl)-1H-pyrazol-5-yl)urea] |  | − (−ve and +ve indicate the value is below and above, respectively, the no significant effect threshold defined as 30% inhibition at 10 μg/mL at the time point indicated) | + (−ve and +ve indicate the value is below and above, respectively, the no significant effect threshold defined as 30% inhibition at 10 μg/mL at the time point indicated) |  |  |  |  |  |  |  |
| 49 | 523 | 5.8 | CC(C)(C)c1cc(NC(=O)Nc2ccc(OCc3ccnc(Nc4cncc(C5CC5)n4)c3)c3ccccc23)n(-c2ccc(CO)cc2)n1 [Example 25] |  | − (−ve and +ve indicate the value is below and above, respectively, the no significant effect threshold defined as 30% inhibition at 10 μg/mL at the time point indicated) | + (−ve and +ve indicate the value is below and above, respectively, the no significant effect threshold defined as 30% inhibition at 10 μg/mL at the time point indicated) |  |  |  |  |  |  |  |
| > 16200 | 1900 | 17.1 | CC(C)(C)c1cc(NC(=O)Nc2ccc(OCc3ccnc(Nc4cnccn4)c3)c3ccccc23)n(-c2ccc(Cl)cc2)n1 [Example 45] |  | − (−ve and +ve indicate the value is below and above, respectively, the no significant effect threshold defined as 30% inhibition at 10 μg/mL at the time point indicated) | − (−ve and +ve indicate the value is below and above, respectively, the no significant effect threshold defined as 30% inhibition at 10 μg/mL at the time point indicated) |  |  |  |  |  |  |  |
